Measured values published in US20170224643A1, “METHOD FOR AVOIDING OR INHIBITION OF DYSKINESIA” (Research Foundation of the City University of New York, priority 2016, published 2017).
Entries after “also recorded” stand apart in the source; their conditions may differ.

Experiments:
[1] = tested on: unilateral 6-OHDA model of LID; experiment: unilateral 6-OHDA model of L-Dopa induced dyskinesia, abnormal induced movements (AIMs) scoring; format: in vivo, mice
Source text: (§1) Assessing dopamine hyper-sensitivity in the unilateral 6-OHDA model of LID. The well-established unilateral 6-OHDA model of LIDs was used in which the injection of the neurotoxin results in unilateral DA hypersensitivity due to a greater than 80% DA neuron degeneration, and subsequent dopamine hypersensitivity. Two weeks after 6-OHDA injection, the degree of functional deficits are quantified by assessing contralateral paw use in a “cylinder test” (FIG. 1). In untreated, 6-OHDA injected animals contralateral paw use during rearing at the glass wall is reduced from random (50%, dotted line) due to the dopaminergic lesion and resulting reduced dopamine secretion (FIG. 1, white bars). Upon dopamine substitution by a single dose of L-Dopa contralateral paw use is increased above random (50% dotted line) due to dopamine hypersensitivity that developed in response to reduced dopamine levels (FIG. 1 black bars).
Inhibition of Smo by cyclopamine INCREASES LIDs After the functional assessment of dopaminergic denervation in the 6-OHDA model of LIDS, LIDs are induced by daily injections of L-Dopa (5 mg/kg, IP) for 13 days followed by quantification of dyskinesia. Abnormal movements are assessed for 1 min every 20 min, over a period of 120 min immediately after L-DOPA administration coinciding with the peak of L-Dopa dependent DA release. Abnormal induced movements (AIMs), clearly distinct from natural stereotyped behaviors (i.e., grooming, sniffing, rearing, and gnawing), are classified following a well-established scheme in the field of dyskinesia research into four different subtypes: locomotive (tight contralateral turns), axial (contralateral dystonic posture of the neck and upper body), limb (jerky and fluttering movements of the limb contralateral to the side of the lesion), and orofacial (vacuous jaw movements and tongue protrusions) (Sebastianutto, I., N. Maslava, C. R. Hopkins, and M. A. Cenci, Validation of an improved scale for rating l-DOPA-induced dyskinesia in the mouse and effects of specific dopamine receptor antagonists. Neurobiology of disease, 2016. 96: p. 156-170.). The co-administration of the Smo antagonist cyclopamine (5 mg/kg, IP) together with L-Dopa (5mg/kg, IP) at day 14 results in an approximately 80% increase in LIDs (FIG. 2, black bar) compared to L-Dopa alone (FIG. 2, white bar).
Stimulation of Smo by SAG DECREASES LIDs. Analogous to the experiments testing the inhibition of Smo, the unilateral 6-OHDA model of LIDs was used to test the effect of activating Smo signaling by the agonist SAG (FIG. 5). Two weeks after 6-OHDA injection, LIDs are induced by daily injections of L-Dopa (5 mg/kg, IP) for 16 days. A gradual increase in the display of dyskinesia was observed from day 4 to day 16 (FIG. 5, white bars). Consistent with the hypothesis and conversely to the facilitation of LIDs by the inhibition of Smo signaling, applicant found about a twofold REDUCTION in the display of LIDs upon the co-administration of a L-Dopa dose (5 mg/kg, […] 5, black bar).
Stimulation of Smo by Purmorphamine DECREASES LIDs. Analogous to the experiments testing the inhibition of Smo, the unilateral 6-OHDA model of LIDs was used to test the effect of activating Smo signaling by the agonist Purmorphamine (PUR). Two weeks after 6-OHDA injection, LIDs are induced by daily injections of L-Dopa (5 mg/kg, IP) for 14 days. A gradual increase in the display of dyskinesia was observed from day 4 to day 11 (FIG. 6, white bars). Consistent with the hypothesis and similar to the results with stimulating Smo with SAG and conversely to the facilitation of LIDs by the inhibition of Smo signaling, applicant finds about 40% REDUCTION in the display of LIDs upon the co-administration of a L-Dopa “challenge” dose (20 mg/kg; IP, i.e. 4×the regular dose) together with the Smo agonist Purmorphamine (15 mg/kg, IP) on day 15 (FIG. 6, black bar). […]

[2] = tested on: Shh-nLacZ^C/C/Dat-Cre mice; experiment: L-Dopa induced dyskinesia in mice with genetic ablation of Shh from dopamine neurons; format: in vivo
[3] = tested on: two models of LID (unilateral 6-OHDA model and aphakia mouse line); experiment: meta-analysis of dyskinesia measurements across two models of LID, ratio over L-Dopa only controls; format: in vivo, mice; details: for effect on dyskinesia (words): 6-OHDA model and aphakia mouse line, compared to controls; for reduction in expression of established dyskinesia over L-Dopa only controls: acute stimulation of Smo, combined across models
Source text: Meta-analysis of dyskinesia measurements across two models of LID and three structurally distinct compounds (cyclopamine, SAG, purmorphamine):. A ratiometric expression of LID after treatment with Smo antagonist or agonists over L-Dopa only treated controls allows applicant to present results combined across two distinct models of dyskinesia and three distinct compounds. Setting dyskinesia scores observed in L-Dopa only treated controls as 1 (FIG. 11: dotted line and white bar), we find that inhibition of Smo by cyclopamine results in a 70% INCREASE of dyskinesia (FIG. 11: black bar labeled “a”). Conversely, acute stimulation of Smo by SAG leads to a roughly 2 fold REDUCTION in the expression of established dyskinesia (FIG. 11, black bar labeled “b”) and semi chronic daily dosing with SAG together with L-Dopa (“adjuvants” strategy) leads to about 70% reduction in the formation and display of LIDs (FIG. 11, black bar labeled “c” Consistent and similar to the effect of SAGthe acute stimulation of Smo with Purmorphamine leads to a roughly 2 fold REDUCTION in the display of established LID (FIG. 11, black bar labeled “d”).

[4] = tested on: aphakia mouse line, a genetic model of LID; experiment: aphakia mouse model of LID, three paw dyskinesia scoring; format: in vivo, mice; details: for effect on AIMs induced by daily L-Dopa: aphakia mouse line
Source text: Inhibition of Smo by cyclopamine in thegenetic “aphakia ” model of dyskinesia INCREASES LIDs. Analogous to the use of the unilateral 6-OHDA model of LID, we tested whether Shh signaling effects the formation and display of LID in an independent, genetic model, the well-studied Aphakia mouse model. […] The hypo-dopaminergic state of these animals is thought to be similar to the dopaminergic state of Parkinson's disease patients. It is well established that these mice readily develop LID upon semi chronic dosing with L-Dopa. […] Daily systemic injections of L-Dopa (20 mg/kg, IP) results in progressive display of 3 paw dyskinesia over 7 days (FIG. 3, white bars. Co-injection of cyclopamine (5 mg/kg, IP) together with L-Dopa (20 mg/kg, IP) on day 8 results in a roughly 3 fold increase in 3-paw dyskinesia compared to day 7 (FIG. 3, see d8, black bar). Further daily co-injections of cyclopamine together with L-Dopa (5 mg/kg, IP and 20 mg/kg, IP, resp.) results in further increases in dyskinesia scores reaching 7 fold the score obtained after 7 days of L-Dopa only dosing (FIG. 3, see d11, black bar compared to d7, white bar).
Stimulation of Smo by SAG in a genetic model of dyskinesia DECREASES LIDs. Analogous to testing the effect of cyclopamine, we used the aphakia mouse line to determine whether stimulation of Shh signaling might reduce the display of established LID. We injected daily for 28 days L-Dopa (20 mg/kg; IP). On day 29 we co-injected SAG (20 mg/kg, IP) together with L-Dopa (20 mg/kg, IP). We scored 3 paw dyskinesia at day 28 (FIG. 9: white bar) and day 29 (FIG. 9: black bar) and find a roughly 2 fold reduction in dyskinesia upon SAG dosing.
Movement disorders: official journal of the Movement Disorder Society, 2015. 30(6): p. 788-95.). Analogous to testing the effects of the stimulation of Smo by SAG in the aphakia mouse model of dyskinesia described above we injected daily L-Dopa (25 mg/kg, IP) for 21 days. All animals developed robust dyskinesia scores. On day 21 animals were randomly assigned into 4 groups.

[5] = tested on: Parkinson's Patients; details: Pahwa et al. 2015; cited from earlier work
[6] = tested on: unilateral 6-OHDA lesioned animals; experiment: cylinder test of contralateral paw use after unilateral 6-OHDA lesion; format: in vivo, mice; details: single dose L-Dopa 5 mg/kg IP; random = 50%
Experimental: FIG. 1 depicts assessment of 6-OHDA induced dopaminergic lesion. All animals of cohorts A and B were lesioned unilaterally by stereotactic injection of 6-OHDA into the dorso-lateral striatum. White bars: saline injected, black bars: L-dopa (5 mg/kg, IP) injected. Unilateral striatal 6-OHDA injection results in […] dopamine hypersensitivity. (**=p<0.001, ***=p<0.0001, t-test; n=9-11/treatment group; mean±SEM);
as §1

CNC1CCC(N(Cc2cccc(-c3ccncc3)c2)C(=O)c2sc3ccccc3c2Cl)CC1 (stereo not shown) [SAG]
LID scores after SAG wash-out ([1]; L-Dopa 5 mg/kg IP daily without SAG, d16 to d34, after 14 days of L-Dopa/SAG): indistinguishable from control groups
effect of chronic dosing with SAG together with L-Dopa on AIMs ([1]; SAG as adjuvant to daily L-Dopa): reversible, dose dependent build-up of a reduction of abnormal induced movements; also recorded: build-up of a reduction of abnormal induced movements over 7 days
reduction of dyskinesia ([1]; daily SAG 0.8 mg/kg IP with L-Dopa 5 mg/kg IP, day 12): 45%
reduction of dyskinesia ([1]; daily SAG 2.5 mg/kg with L-Dopa 5 mg/kg IP, 4 days of dosing): 50%
reduction of dyskinesia ([1]; daily SAG 7 mg/kg IP with L-Dopa 5 mg/kg IP, day 4): about 50%
reduction of dyskinesia ([1]; daily SAG 7 mg/kg IP with L-Dopa 5 mg/kg IP, day 14): about 80%
reduction of AIMS scores over the control group ([1]; daily SAG 10 mg/kg IP with L-Dopa 5 mg/kg IP for 14 days, day 14): greater than 2 fold
reduction in LIDs compared to controls ([1]; within subject escalation, SAG 15 mg/kg IP, day 51, L-Dopa 20 mg/kg IP): greater than 2 fold
reduction of dyskinesia score compared to day 20 ([2]; single injection SAG 20 mg/kg IP with L-Dopa on day 22, ratio mutants over controls): about 10 fold
effect on dyskinesia (words) [3]: decrease dyskinesia; also recorded: delayed and weaker/blunted induction and reduced expression of dyskinesia
reduction in expression of established dyskinesia over L-Dopa only controls [3]: roughly 2 fold
reduction in the formation and display of LIDs over L-Dopa only controls ([3]; semi chronic daily dosing with SAG together with L-Dopa): about 70%
reduction in 3 paw dyskinesia ([4]; SAG 20 mg/kg IP with L-Dopa 20 mg/kg IP on day 29, vs day 28): roughly 2 fold
reduction in the display of LID ([4]; SAG 20 mg/kg IP with L-Dopa 25 mg/kg IP on day 21, compared to controls): 2 fold
effect on AIMs induced by daily L-Dopa [4]: decreases abnormal induced movements

NC12CC3CC(CC(C3)C1)C2 [Amantadine]
reduction of LID ([4]; amantadine 40 mg/kg IP with L-Dopa 25 mg/kg IP on day 21, did not reach significance): roughly 30%
inhibition of dyskinesia [5]: 23%

CC1=C2C[C@H]3[C@@H](CC=C4C[C@@H](O)CC[C@@]43C)[C@@H]2CC[C@]12O[C@@H]1C[C@H](C)CN[C@H]1[C@H]2C [cyclopamine]
effect on dyskinesia (words) [3]: more rapid induction and stronger expression of dyskinesia
effect on dyskinesia (words) ([3]; listed as Cyclopamine): increases dyskinesia
increase of dyskinesia over L-Dopa only controls ([3]; combined across two models, controls set to 1): 70%
effect on AIMs induced by daily L-Dopa [4]: increases abnormal induced movements
increase in 3-paw dyskinesia ([4]; cyclopamine 5 mg/kg IP with L-Dopa 20 mg/kg IP on day 8, compared to day 7): roughly 3 fold
dyskinesia score relative to 7 days of L-Dopa only dosing ([4]; daily cyclopamine 5 mg/kg IP with L-Dopa 20 mg/kg IP, d11 compared to d7): 7 fold

c1ccc2c(Oc3nc(Nc4ccc(N5CCOCC5)cc4)c4ncn(C5CCCCC5)c4n3)cccc2c1 [Purmorphamine]
reduction in the display of LIDs ([1]; Purmorphamine 15 mg/kg IP with L-Dopa challenge dose 20 mg/kg IP on day 15): about 40%
reduction of AIMs ([1]; single dose Purmorphamine 15 mg/kg IP co-injected with L-Dopa 20 mg/kg IP after daily L-Dopa 5 mg/kg IP): 2 fold
effect on dyskinesia (words) [3]: decrease dyskinesia
effect on dyskinesia (words) ([3]; listed as purmorphamine): delayed and weaker/blunted induction and reduced expression of dyskinesia
reduction in expression of established dyskinesia over L-Dopa only controls [3]: roughly 2 fold

N[C@@H](Cc1ccc(O)c(O)c1)C(=O)O [L-Dopa]
increase in LID scores ([1]; daily L-Dopa ramped up to 20 mg/kg IP, day 34 compared to day 27): 3 fold
formation of LID ([2]; daily L-Dopa 10 mg/kg IP, 16 days, mutants, not in litter controls): formation of LID over time
contralateral paw use during rearing [6]: > 50%
